Data taken from ChEMBL document CHEMBL5050859, “Gpx4 inhibitors, pharmaceutical compositions thereof, and their use for treating gpx4-mediated diseases” (2021).

test system: Huh-7; assay: Antiproliferative activity against human Huh-7 cells after 24 hrs by Cell Titer Glo assay; assay type: functional, cell-based; conditions: Huh-7, 24 h

| Compound | EC50 |
| --- | --- |
| COc1ccc(N(C(=O)CCl)C(C(=O)NCc2ccccc2)c2cccs2)cc1Cl (stereo not drawn) | 500 nM |
| C#CC(=O)N(c1ccc(OC)cc1OC)C(C(=O)NCC(=O)OCC)c1cccs1 (stereo not drawn) | 500 nM |
| C#CC(=O)N(C1(C(=O)NCc2ccccc2)CCOCC1)C1(c2ccccc2)CC1 | ≤ 100 nM |
| C#CC(=O)N(C1CCC1)C1(C(=O)NCc2ccccc2)CCCC(C(=O)OC)C1 (stereo not drawn) | 500 nM |
| Nc1cccc(N(C(=O)CCl)C(C(=O)NCCc2ccccc2)c2cccs2)c1 (stereo not drawn) | 2000 nM |
| C=CC(=O)N(Cc1cccc(O)c1)C1(C(=O)NCc2ccccc2)CCOCC1 | > 10000 nM |
| C#CC(=O)N(c1ccc2c(cnn2C)c1)C1(C(=O)NCc2ccccc2)CCC(=O)CC1 | ≤ 100 nM |
| C#CC(=O)N(c1cccc2cnn(C)c12)C(C(=O)NCc1ccccc1)c1ccccc1 (stereo not drawn) | ≤ 100 nM |
| C#CC(=O)N(c1ccc2[nH]ncc2c1)C1(C(=O)NCc2ccccc2)CCOCC1 | 100 nM |
| COc1ccc(N(C(=O)CCl)C2(C(=O)NCc3ccccc3)CCOCC2)cc1Cl | 100 nM |
| C#CC(=O)N(c1ccc2c(cnn2C)c1)C1(C(=O)NCc2ccccc2)CCCC(C(=O)OC)C1 (stereo not drawn) | ≤ 100 nM |
| C#CC(=O)N(CCc1ccccc1)C1(C(=O)NCc2ccccc2)CCCC(C(=O)O)C1 (stereo not drawn) | > 10000 nM |
| C#CC(=O)N(c1ccc2c(cnn2C)c1)C1(C(=O)NCc2ccccc2)CCCOC1 (stereo not drawn) | ≤ 100 nM |
| O=C(NCCc1ccccc1)C(c1ccc([N+](=O)[O-])cc1)N(Cc1ccccc1)C(=O)CCl (stereo not drawn) | 2000 nM |
| C#CC(=O)N(c1cccc(Cl)c1)C1(C(=O)NCC(=O)NCc2ccccc2O)CCOCC1 | 100 nM |
| C#CC(=O)N(c1ccc(OC)cc1OC)C1(C(=O)NCc2ccccc2)CCOCC1 | ≤ 100 nM |
| Cn1ncc2cc(N(C(=O)CO)C3(C(=O)NCc4ccccc4)CCOCC3)ccc21 | > 10000 nM |
| C#CC(=O)N(c1cccc(Cl)c1)C1(C(=O)NCC(=O)Nc2ccccc2)CCOCC1 | 100 nM |
| C#CC(=O)N(c1ccc2c(c1)C(=O)OC2)C(C(=O)NCc1ccccc1)c1ccccc1 (stereo not drawn) | ≤ 100 nM |
| C=C(F)C(=O)N(c1ccc(OC)c(Cl)c1)C(C(=O)NCc1ccccc1)c1cccc(N)c1 (stereo not drawn) | > 10000 nM |
| C#CC(=O)N(c1cccc2c1OCO2)C1(C(=O)NCc2ccccc2)CCOCC1 | ≤ 100 nM |
| O=C(NCCc1ccccc1)C(c1ccc([N+](=O)[O-])cc1)N(C(=O)CCl)c1cccc(Cl)c1 (stereo not drawn) | 100 nM |
| C#CC(=O)N(c1cccc(Cl)c1)C1(C(=O)NCC(=O)NCc2ccccc2Cl)CCOCC1 | 100 nM |
| O=C(CCl)N(c1cccc2nsnc12)C1(C(=O)NCc2ccccc2)CCOCC1 | 100 nM |
| C#CC(=O)N(c1cccc(Cl)c1)C1(C(=O)NCC(=O)N2CCCC(CO)C2)CCOCC1 (stereo not drawn) | 2000 nM |

| Compound | EC50 |
| --- | --- |
| COc1cccc(N(C(=O)CCl)C(C(=O)NCCc2ccccc2)c2ccc([N+](=O)[O-])cc2)c1 (stereo not drawn) | 100 nM |
| Nc1ccc(N(C(=O)CCl)C(C(=O)NCCc2ccccc2)c2cccs2)cc1 (stereo not drawn) | 2000 nM |
| C#CC(=O)N(c1cccc(Cl)c1)C(C(=O)NCC1CCOCC1)c1ccccc1 (stereo not drawn) | ≤ 100 nM |
| C=CC(=O)N(c1cccc(Cl)c1)C1(C(=O)NCc2ccccc2)CCOCC1 | > 10000 nM |
| C#CC(=O)N(c1cccc(Cl)c1)C(C(=O)NCC1COC1)c1ccccc1 (stereo not drawn) | ≤ 100 nM |
| COc1ccc(N(C(=O)CCl)C2(C(=O)NCCc3ccccc3)CCC(F)(F)CC2)cc1Cl | 100 nM |
| COC(=O)c1cccc(N(C(=O)CCl)C(C(=O)NCCc2ccccc2)c2ccc([N+](=O)[O-])cc2)c1 (stereo not drawn) | 100 nM |
| COc1ccc(N(C(=O)CCl)C(C(=O)NCCc2ccccc2)c2ccc(N)cc2)cc1Cl (stereo not drawn) | 100 nM |
| C#CC(=O)N(c1cccn2cnnc12)C(C(=O)NCc1ccccc1)c1ccccc1 (stereo not drawn) | 100 nM |
| C#CC(=O)N(c1cccc(Cl)c1)C1(C(=O)NCc2ccccc2)CCC(=O)CC1 | ≤ 100 nM |
| O=C(CCl)N(c1cccc2nsnc12)C1(C(=O)NCCc2ccccc2)CCOCC1 | 500 nM |
| C#CC(=O)N(c1cccc(Cl)c1)C1(C(=O)NCC(=O)NCc2ccccc2C#N)CCOCC1 | 100 nM |
| C=C(F)C(=O)N(c1ccc2c(cnn2C)c1)C1(C(=O)NCc2ccccc2)CCOCC1 | > 10000 nM |
| Cn1ncc2cc(N(C(=O)C3CO3)C3(C(=O)NCc4ccccc4)CCOCC3)ccc21 (stereo not drawn) | > 10000 nM |
| C#CC(=O)N(c1cccc(Cl)c1)C1(C(=O)NCC(=O)OCC)CCOCC1 | 500 nM |
| CC(=O)Nc1cccc(N(C(=O)CCl)C(C(=O)NCCc2ccccc2)c2ccc([N+](=O)[O-])cc2)c1 (stereo not drawn) | 2000 nM |
| C#CC(=O)N(c1ccn2cnnc2c1)C1(C(=O)NCc2ccccc2)CCOCC1 | 500 nM |
| CC(C)(C)NC(=O)C(c1ccc([N+](=O)[O-])cc1)N(C(=O)CCl)c1ccc(Cl)cc1 (stereo not drawn) | 2000 nM |
| C#CC(=O)N(c1cccc(Cl)c1)C1(C(=O)NCc2ccccc2)CCCC(C(=O)OC)C1 (stereo not drawn) | ≤ 100 nM |
| CN(C)C/C=C/C(=O)N(c1ccc2c(cnn2C)c1)C1(C(=O)NCc2ccccc2)CCOCC1 | > 10000 nM |
| O=C(NCCc1ccccc1)C(c1ccc([N+](=O)[O-])cc1)N(C(=O)CCl)c1cccc(O)c1 (stereo not drawn) | 2000 nM |
| CC(Cl)C(=O)N(c1ccc2c(cnn2C)c1)C1(C(=O)NCc2ccccc2)CCOCC1 (stereo not drawn) | > 10000 nM |
| C#CC(=O)N(c1ccc(N(C)C)cc1)C1(C(=O)NCc2ccccc2)CCOCC1 | 100 nM |
| O=C(CCl)N(c1ccc2c(c1)OCO2)C1(C(=O)NCc2ccccc2)CCOCC1 | 2000 nM |
| COc1ccc(N(C(=O)CCl)C(C(=O)NCCc2ccccc2)c2cccc(N)c2)cc1Cl (stereo not drawn) | 100 nM |

| Compound | EC50 |
| --- | --- |
| COc1ccc(N(C(=O)CCl)C(C(=O)NCCc2ccccc2)c2ccc(NC(=O)CO)cc2)cc1Cl (stereo not drawn) | 500 nM |
| C#CC(=O)N(c1cccc2c1CCC2=O)C1(C(=O)NCc2ccccc2)CCOCC1 | ≤ 100 nM |
| C#CC(=O)N(Cc1cccc(O)c1)C1(C(=O)NCc2ccccc2)CCCC(C(=O)OC)C1 (stereo not drawn) | 100 nM |
| C#CC(=O)N(c1cccc2nsnc12)C1(C(=O)NCc2ccccc2)CCOCC1 | ≤ 100 nM |
| CC(C)N(C(=O)CCl)C(C(=O)NCCc1ccccc1)c1cccs1 (stereo not drawn) | > 10000 nM |
| C#CC(=O)N(c1cccc(Cl)c1)C1(C(=O)NCS(=O)(=O)c2ccc(C)cc2)CCOCC1 | 500 nM |
| C#CC(=O)N(c1cc(Cl)ccc1Cl)C(C(=O)NCc1ccccc1)c1ccccc1 (stereo not drawn) | ≤ 100 nM |
| Cn1ncc2cc(N(C(=O)C(F)F)C3(C(=O)NCc4ccccc4)CCOCC3)ccc21 | > 10000 nM |
| C#CC(=O)N(c1cccc(Cl)c1)C(C(=O)NCC1CC1)c1ccccc1 (stereo not drawn) | ≤ 100 nM |
| C#CC(=O)N(CCc1ccccc1)C1(C(=O)NCc2ccccc2)CCCC(C(=O)OC)C1 (stereo not drawn) | 100 nM |
| C#CC(=O)N(c1cccc(Cl)c1)C1(C(=O)NCC(=O)NCc2ccccc2)CCOCC1 | 100 nM |
| O=C(NCCc1ccccc1)C(c1ccc([N+](=O)[O-])cc1)N(Cc1cccs1)C(=O)CCl (stereo not drawn) | 2000 nM |
| C=CC(=O)N(c1ccc2c(cnn2C)c1)C1(C(=O)NCc2ccccc2)CCOCC1 | > 10000 nM |
| C#CC(=O)N(c1cccc(Cl)c1)C1(C(=O)NCC(=O)NCCO)CCOCC1 | 2000 nM |
| C=CC(=O)N(C1CCC1)C1(C(=O)NCc2ccccc2)CCOCC1 | > 10000 nM |
| C#CC(=O)N(c1ccc2c(cnn2C)c1)C1(C(=O)NCc2ccccc2)CCCC(=O)C1 (stereo not drawn) | 100 nM |
| COc1ccc(N(C(=O)CCl)C2(C(=O)NCc3ccccc3)CCC(F)(F)CC2)cc1Cl | ≤ 100 nM |
| C[Si](C)(C)C#CC(=O)N(c1cccc(Cl)c1)C1(C(=O)NCc2cccc(Cl)c2)CCOCC1 | ≤ 100 nM |
| C=CC(=O)N(CCc1ccccc1)C1(C(=O)NCc2ccccc2)CCOCC1 | > 10000 nM |
| C#CC(=O)N(c1cccc(Cl)c1)C1(C(=O)NCc2ccccc2)CCCOC1 (stereo not drawn) | ≤ 100 nM |
| C#CC(=O)N(c1cccc(Cl)c1)C(C(=O)NCc1ccccc1C#N)c1ccccc1 (stereo not drawn) | ≤ 100 nM |
| C#CC(=O)N(c1cccc(Cl)c1)C1(C(=O)NCc2ccccc2)CCCC(=O)C1 (stereo not drawn) | ≤ 100 nM |
| C#CC(=O)N(c1ccc2c(ccn2C)c1)C1(C(=O)NCc2ccccc2)CCOCC1 | ≤ 100 nM |
| Cn1ncc2cc(N(C(=O)CCl)C3(C(=O)NCCc4ccccc4)CCOCC3)ccc21 | 500 nM |
| COc1ccc(N(C(=O)CCl)C2(C(=O)NCCc3ccccc3)CCOCC2)cc1Cl | ≤ 100 nM |

| Compound | EC50 |
| --- | --- |
| COc1ccc(N(C(=O)CCl)C(C(=O)NC(C)(C)C)c2cccs2)cc1Cl (stereo not drawn) | 500 nM |
| CC(=O)N(c1ccc2c(cnn2C)c1)C1(C(=O)NCc2ccccc2)CCCOC1 (stereo not drawn) | > 10000 nM |
| C#CC(=O)N(c1cc2c(cc1I)OCO2)C(C(=O)NCc1ccccc1)c1ccccc1 (stereo not drawn) | ≤ 100 nM |
| C#CC(=O)N(c1ccc2[nH]ccc2c1)C1(C(=O)NCc2ccccc2)CCOCC1 | 2000 nM |
| C#CC(=O)N(c1ccc2c(c1)OCO2)C1(C(=O)NCc2ccccc2)CCOCC1 | 100 nM |
| C#CC(=O)N(c1ccccc1N1CCOCC1)C1(C(=O)NCc2ccccc2)CCOCC1 | ≤ 100 nM |
| C#CC(=O)N(c1ccc2c(cnn2C)c1)C1(C(=O)NCc2ccccc2)CCOCC1 | ≤ 100 nM |
| C#CC(=O)N(c1cccc(Cl)c1)C1(C(=O)NCc2ccccc2)CCCC(O)C1 (stereo not drawn) | 2000 nM |
| C#CC(=O)N(c1ccc2c(c1)C(=O)OC2)C1(C(=O)NCc2ccccc2)CCOCC1 | ≤ 100 nM |
| C#CC(=O)N(c1ccc2scnc2c1)C1(C(=O)NCc2ccccc2)CCOCC1 | 100 nM |
| C#CC(=O)N(c1cccc(Cl)c1)C1(C(=O)NCc2cccc(Cl)c2)CCOCC1 | ≤ 100 nM |
| Nc1ccc(C(C(=O)NCCc2ccccc2)N(C(=O)CCl)c2cccc(Cl)c2)cc1 (stereo not drawn) | 500 nM |
| C#CC(=O)N(c1cccc(Cl)c1)C1(C(=O)NCC(=O)N2CCCC(O)C2)CCOCC1 (stereo not drawn) | 2000 nM |
| Cn1ncc2cc(N(C(=O)CCl)C3(C(=O)NCc4ccccc4)CCOCC3)ccc21 | 500 nM |
| C#CC(=O)N(Cc1cccc(O)c1)C1(C(=O)NCc2ccccc2)CCOCC1 | ≤ 100 nM |
| C#CC(=O)N(c1ccc2ncn(C)c2c1)C1(C(=O)NCc2ccccc2)CCOCC1 | 500 nM |
| COc1ccc(N(C(=O)CCl)C(C)C(=O)NCCc2ccccc2)cc1Cl (stereo not drawn) | 500 nM |
| C#CC(=O)N(c1ccc2c(c1)ncn2C)C1(C(=O)NCc2ccccc2)CCOCC1 | 500 nM |
| C#CC(=O)N(c1cccc(Cl)c1)C1(C(=O)NCC(=O)N2CCCC(C(=O)OC)C2)CCOCC1 (stereo not drawn) | 100 nM |
| C=CC(=O)N(c1ccc(OC)c(Cl)c1)C(C(=O)NCc1ccccc1)c1cccc(N)c1 (stereo not drawn) | > 10000 nM |
| C#CC(=O)N(c1cccc(Cl)c1)C1(C(=O)NCC(=O)O)CCOCC1 | > 10000 nM |
| C#CC(=O)N(Cc1cccc(O)c1)C1(C(=O)NCc2ccccc2)CCCC(C(=O)O)C1 (stereo not drawn) | > 10000 nM |
| C#CC(=O)N(C1CCC(=O)N(C)C1)C(C(=O)NCc1ccccc1)c1ccccc1 (stereo not drawn) | 2000 nM |
